In patent US20240299414A1, “SUBCUTANEOUS OR INTRAMUSCULAR INJECTION FORMULATIONS OF ILOPROST” (EICOS SCIENCES, INC., priority 2020, published 2024):
Like-named read-outs stand apart in the source and are kept apart here.

Key:
[1] = Safety and tolerability in the IV iloprost study (adverse events, vital signs, ECG, laboratory); assay type: in vivo, human
Description: On Day 1, study drug was initiated at a starting dose of 0.5 ng/kg/min, and dose increases occurred every 30 minutes (±5 minutes) in increments of 0.5 ng/kg/min up to 2.0 ng/kg/min or the individual tolerated dose. If dose-limiting adverse events (e.g., headache, flushing, jaw pain, myalgia, nausea, or vomiting) occurred that could not be tolerated by the subject, or if the subject experienced symptomatic hypotension, then the dose was reduced in a step-wise manner by 0.5 ng/kg/min every 30 minutes (±5 minutes) until a tolerated dose was determined or the infusion was stopped until the symptoms resolved at which point the study drug was reinitiated at a previously tolerated dose. If symptomatic hypotension or a dose-limiting adverse event occurred during administration of iloprost at the starting dose (i.e., 0.5 ng/kg/min), the infusion was reduced to 0.25 ng/kg/min. If the dose of 0.25 ng/kg/min was not tolerated due to symptomatic hypotension or if a dose-limiting adverse event occurred, the study drug was discontinued, and re-initiation of the infusion could have been attempted after the event had resolved or had been treated. Blood pressure and heart rate were monitored 15 minutes (±5 minutes) prior to and after all dose changes. The maximum tolerated dose was maintained for the remaining 6-hour daily period. At the end of the 6-hour infusion period, the dose was stopped. Subjects were to be monitored for up to 1 hour after completion of study drug infusion (i.e., vital signs were obtained 15 minutes [+5 minutes] and 1 hour [+15 minutes] after completion of the infusion).
Safety parameters included adverse events, physical examination findings, vital sign measurements (heart rate and blood pressure), 12-lead electrocardiogram (ECG) findings, and standard clinical laboratory measurements (chemistry and hematology).

[2] = cited from earlier work
[3] = PK sub-study of IV iloprost infusion (plasma, LC-MS); assay type: in vivo, human; details: for AUC(0-t) / AUC(0-inf) / Vd / half-life: human, plasma; for AUC(0-t): read-out: AUC0-last, Geometric mean (geometric CV %); for AUC(0-inf): read-out: AUC0-inf, Geometric mean (geometric CV %); for Vd: read-out: Vss, Mean (SD)
Description: Eligible subjects were given the option to participate in a PK sub-study. Subjects who participated in the sub-study provided plasma samples for PK analysis. The samples were analyzed for iloprost concentrations using validated liquid chromatography mass spectrometry methods.
The following PK parameters were calculated whenever possible, based on the plasma concentrations of iloprost: • Steady state plasma concentration just before infusion was stopped • Area under the plasma concentration versus time curve (AUC) from time of dosing to the last time point with measurable concentration (AUC0-last) • AUC from time 0 extrapolated to infinity (AUC0-inf) • Percentage of AUC obtained by extrapolation (AUCextrap%) • Terminal elimination constant (λz) • Plasma terminal elimination half-life (t1/2) • Plasma clearance (CL), calculated as dose/AUC0-inf • Volume of distribution (V), calculated as dose/(λz×AUC0-inf)

[4] = 1.5 ng/kg, maximum tolerated dose level 1.50 ng/kg/min IV, n = 1
[5] = maximum tolerated dose level 1.00 ng/kg/min IV, n = 1
[6] = maximum tolerated dose level 1.00 ng/kg/min IV, n = 2
[7] = maximum tolerated dose level 2.00 ng/kg/min IV, n = 1
[8] = maximum tolerated dose level 2.00 ng/kg/min IV, n = 4

For `CC#CCC(C)[C@H](O)/C=C/[C@@H]1[C@H]2C/C(=C/CCCC(=O)O)C[C@H]2C[C@H]1O` (stereo partly drawn) [Iloprost, (5E)-5-[(3aS,4R,5R,6aS)-5-hydroxy-4-[(E,3S)-3-hydroxy-4-methyloct-1-en-6-ynyl]-3,3a,4,5,6,6a-hexahydro-1H-pentalen-2-ylidene]pentanoic acid], the “TEAE abdominal pain, n [%]” value ([1]; human, in vivo) was 4 [23.5%] subjects, the “TEAE flushing, n [%]” value ([1]; human, in vivo) was 5 [29.4%] subjects and the “TEAE headache, n [%]” value ([1]; human, in vivo) was 16 [94.1%] subjects. The “TEAE nausea, n [%]” value ([1]; human, in vivo) was 11 [64.7%] subjects, the “subjects who experienced a TEAE, n (%)” value ([1]; human, in vivo) was 17 (100.0%) subjects and the “subjects with TEAEs considered severe by the Investigator, n (%)” value ([1]; human, in vivo) was “Two (11.8%) subjects”. For the same compound, the bradycardia or tachycardia ([1]; in vivo) was “no bradycardia or tachycardia reported”, the “changes in chemistry or hematology laboratory values” ([1]; in vivo) was “no clinically significant changes” and the “hypertensive or hypotensive events” value ([1]; in vivo) was “no hypertensive or hypotensive events reported”. The “SAE, AESI, TEAE leading to discontinuation of study drug, or TEAE leading to death” value ([1]; whole study) was “No subjects experienced”, the non-compartmental clearance ([2]; 1 ng/kg/min for 45 minutes) was 21 mL/min/kg and the non-compartmental clearance ([2]; 2 ng/kg/min for 4 hours) was 24 mL/min/kg. The non-compartmental clearance ([2]; 3 ng/kg/min for 45 minutes) was 20.6 mL/min/kg, the “geometric mean of Css, AUC0-last and AUC0-inf versus dose” value ([3]; 0.50 to 2.00 ng/kg/min, exception Css and AUC0-last at 1.50 ng/kg/min) was “increased as dose increased” and the AUC(0-t) ([3]; 0.5 ng/kg, maximum tolerated dose level 0.50 ng/kg/min IV, n = 1) was 0.116 ng·h/mL. For the same compound, the AUC(0-inf) [3, 4] was 0.603 ng·h/mL, the Vd [3, 4] was 49.3 L and the half-life ([3]; 1.5 ng/kg, maximum tolerated dose level 1.50 ng/kg/min IV, n = 1, read-out: t1/2, Mean (SD) (converted)) was 27 min. It also gave an AUC(0-t) ([3]; 1.5 ng/kg, maximum tolerated dose level 1.50 ng/kg/min IV, n = 2) of 0.203 ng·h/mL, a half-life ([3]; intravenous, range across the 4 dose levels, read-out: mean t½) of 22.9 to 28.3 min and an AUC(0-inf) [3, 5] of 0.379 ng·h/mL. For the same compound, the Vd [3, 5] was 62 L, the half-life ([3]; maximum tolerated dose level 1.00 ng/kg/min IV, n = 1, read-out: t1/2, Mean (SD) (converted)) was 24.6 min and the AUC(0-t) [3, 6] was 0.315 ng·h/mL. For the same compound, the AUC(0-inf) [3, 7] was 0.701 ng·h/mL, the Vd [3, 7] was 35.5 L and the half-life ([3]; maximum tolerated dose level 2.00 ng/kg/min IV, n = 1, read-out: t1/2, Mean (SD) (converted)) was 22.9 min. For the same compound, the AUC(0-t) [3, 8] was 0.478 ng·h/mL, the “Css, Geometric mean (geometric CV %)” value ([3]; maximum tolerated dose level 0.50 ng/kg/min IV, n = 1) was 19.60 (NA) pg/mL and the “CLss, Mean (SD)” value [3, 5] was 91.22 (NA) L/h. For the same compound, the “Css, Geometric mean (geometric CV %)” value [3, 6] was 51.31 (20.7) pg/mL, the “CLss, Mean (SD)” value ([3]; maximum tolerated dose level 1.50 ng/kg/min IV, n = 1) was 6.01 (NA) L/h and the “Css, Geometric mean (geometric CV %)” value ([3]; maximum tolerated dose level 1.50 ng/kg/min IV, n = 2) was 32.90 (284.8) pg/mL. For the same compound, the “CLss, Mean (SD)” value [3, 7] was 64.53 (NA) L/h and the “Css, Geometric mean (geometric CV %)” value [3, 8] was 76.82 (56.9) pg/mL.
